According to EP2657234B1, “OPTICALLY-ACTIVE DIAZABICYCLOOCTANE DERIVATIVE AND METHOD FOR MANUFACTURING SAME” (Meiji Seika Pharma Co., Ltd., priority 2010, dated 2012):
Where a name gives a salt, the structure may show the parent alone.

Columns and labels:
AmpC β-lactamase = molecular target: T1, AmpC β-lactamase (Pseudomonas aeruginosa, UniProt P24735); type: biochemical; conditions: result in words
T1 construct: a DNA for encoding an AmpC β-lactamase domain excluding a signal peptide was amplified with PCR; made in house; host or cells: E. coli BL21
T1 sequence (P24735 27-397): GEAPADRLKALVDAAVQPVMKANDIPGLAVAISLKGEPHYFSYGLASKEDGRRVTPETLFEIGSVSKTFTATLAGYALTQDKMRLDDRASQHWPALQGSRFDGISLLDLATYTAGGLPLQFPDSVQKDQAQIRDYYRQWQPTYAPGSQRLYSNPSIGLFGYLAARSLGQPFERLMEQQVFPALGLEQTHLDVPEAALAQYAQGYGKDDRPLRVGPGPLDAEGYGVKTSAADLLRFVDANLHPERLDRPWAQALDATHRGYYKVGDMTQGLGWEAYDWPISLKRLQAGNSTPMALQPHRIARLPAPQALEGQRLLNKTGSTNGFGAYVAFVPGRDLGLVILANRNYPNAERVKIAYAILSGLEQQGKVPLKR

[1] = tested on: P. aeruginosa PAO1 variant, which constitutively expresses AmpC; assay: Combinatorial effect: MIC of piperacillin (PIPC) by agar plate dilution (CLSI) with test compound; type: cell-based; conditions: for MIC: Pseudomonas aeruginosa, PAO1; for effect of the compound in combination with an antibiotic: result in words
Description: The biological activity of the above-mentioned compounds of formulae (H) and (s) can be measured as follows. Specifically, an enzyme inhibitory activity (IC50 value) against AmpC enzyme which is a class C β-lactamase was determined using nitrocephin as a substrate to check whether or not the compounds had the inhibitory activity and compare the activities of them. Further, using constitutive AmpC producing Pseudomonas aeruginosa, a combined antimicrobial activity (MIC) was measured when using Piperacillin (PIPC) as an antibiotic and the compound of formula (H) or (s) in combination to check whether or not the antimicrobial activity of PIPC could be restored.
The combinatorial effect of the test compound with a β-lactam agent against bacteria was evaluated using AmpC constitutive expression strain selected from P. aeruginosa PAO1 through agent exposure. Using piperacillin (PIPC, Sigma-Aldrich) as a β-lactam agent, measurement was conducted by agar plate dilution process in which minimal inhibitory concentration (MIC) of PIPC is based on Clinical and Laboratory Standards Institute (CLSI process). That is, an agara plate containing 4 µg/mL (final concentration) of test compound and PIPC at each concentration in Mueller-Hinton agar (Becton, Dickinson and Company) was made, and bacteria cultured overnight in cation-adjusted Muller-Hinton broth (Becton, Dickinson and Company) were adjusted in the same medium so as to have 10^4 CFU/spot and inoculated on a plate containing an agent. This plate containing an agent was cultured overnight at 35 °C, and the minimum agent concentration in which no growth of bacteria is observed was determined to be MIC.

| SMILES | β-lactamase enzyme inhibitory activity (AmpC β-lactamase) | MIC [1] [µg/mL] | effect of the compound in combination with an antibiotic [1] |
| --- | --- | --- | --- |
| NC(=O)C1CCC2CN1C(=O)N2OS(=O)(=O)O [Example 23, (2S,5R)-1,6-Diazabicyclo[3.2.1]octane-2-carboxamide, 7-oxo-6-(sulfoxy)-monosodium salt] | exhibited the activities | 4 | exhibited the activities |
| NC(=O)[C@H]1CC[C@H]2CN1C(=O)N2OS(=O)(=O)O [Example 24, (2R,5S)-1,6-Diazabicyclo[3.2.1]octane-2-carboxamide, 7-oxo-6-(sulfoxy)-monosodium salt] | exhibited no activity | 64 | exhibited no activity |
| C[C@]1(Cn2ccnn2)[C@H](C(=O)O)N2C(=O)C[C@H]2S1(=O)=O [TAZ, Tazobactam, reference compound] | – | 64 | – |
